Tests used:
IRS-1 = assay: Tyrosine phosphorylation and expression of IRS-1 in C2C12 myotubes differentiated in serum free medium without (MF) or with chronic insulin (MFI); immunoblot; type: cell-based, mouse
Procedure: (§1) FIG. 5 represents the effect of insulin stimulation on control and chronically insulin-differentiated cells: Cells were stimulated with 100 nm of insulin for 5 min. Cell lysates were run on sodium dodecyl sulphate-7%-polyacrylamide gel electrophoresis (SDS-7%-PAGE) and were immunoblotted with antiphosphotyrosine antibody (A) or anti-IRS-1 antibody (C) or anti-IR-β antibody (E). Cell lysates were immunoprecipitated with antibodies to IRS-1 (B) or IR-β (D) and immunoblotted (IB) with antiphosphotyrosine antibody; and FIG. 6 represents the effect of pioglitazone on tyrosine phosphorylation of IRS-1 and IR-β: Pioglitazone was added at 50 μM concentration during the last day of differentiation for 24 hr. Then, the cells were stimulated with 100 nm of insulin for 5 min. Cell lysate were immunoblotted (IB) with antiphosphotyrosine antibody (A) or α-IRS-1 (B). Cell lysates of the samples prepared the same immunoprecipitated (IP) with antibodies and immunoblotted (IB) with antiphosphotyrosine (C) or anti-IR-β (D) antibodies. C2C12 cells were grown in DMEM (Dulbecco's Modified Eagle Medium) containing 15% FCS (fetal calf serum). The cells were differentiated in serum free medium in the absence or chronic presence of 100 nm insulin. After three days the differentiation was complete. […]

IR-β = assay: Tyrosine phosphorylation and expression of IR-β in C2C12 myotubes differentiated in serum free medium without (MF) or with chronic insulin (MFI); immunoprecipitation and immunoblot; type: cell-based, mouse
Procedure: as §1

insulin was tested. Which “ability of IRS-1 to undergo tyrosine phosphorylation in response to insulin” value (IRS-1; C2C12 cells differentiated in chronic presence of 100 nm insulin (MFI), FIG. 5B) did it give?
The value was “impaired”.

And the “tyrosine phosphorylation of IRS-1 (Mr 160–170 kDa protein)” value (IRS-1; control (MF) C2C12 myotubes stimulated with 100 nm insulin for 5 min, FIG. 5A)?
Its value is “insulin stimulated tyrosine phosphorylation”.

And the “expression of IR-β” value (IR-β; C2C12 cells differentiated in chronic presence of 100 nm insulin, FIG. 5E)?
The value was “reduced”.

What about the “tyrosine phosphorylation levels of IR” value (IR-β; MFI (chronic 100 nm insulin) versus MF differentiated C2C12 cells, FIG. 5D) of the same substance?
The value was “Severe reduction”.

— patent US7052910B2, “Skeletal cell model to screen anti-diabetic compounds” (Council of Scientific and Industrial Research, priority 2001, dated 2006)
